Results from patent publication US9408803B2, “Compositions containing lignan-class compounds” (SUNTORY HOLDINGS LIMITED, priority 2006, dated 2016).

How the values were obtained:
[1] = system: β-oxidation enzymes in the liver; conditions: as compared with sesamin; cited from earlier work
[2] = parameters: species or system rats; conditions: rat, in vivo
Source text: It may well be said that a preferred mode of ingesting sesamin and/or episesamin is by dissolving them in fat or oil; however, sesamin and/or episesamin is only slightly soluble and has such low solubility in fat or oil (wheat germ oil) that not only is it difficult to incorporate them at high concentrations but, at the same time, even if they are incorporated at low concentrations, a crystal may precipitate during storage on account of their low storage stability. This crystal precipitation can potentially result in lowered absorbability, so considering the storage stability, there has been no alternative to incorporating them at concentrations considerably lower than their solubility in fat or oil (wheat germ oil). Under these circumstances, when one made an attempt to increase the dose of sesamin and/or episesamin that could be ingested at a time, the amount of the solvent fat or oil also had to be increased, inevitably resulting in an excessive calorie intake. In addition, the volume of the sesamin and/or episesamin containing composition that is prescribed becomes so large per unit dosage or their quantities to be ingested become so large that inconveniences in ingestion have occasionally occurred. […]

[3] = Solubility test in fats or oils (crystal formation after standing overnight at room temperature); assay type: physicochemical
Source text: Three samples were used and they included not only a mixture of sesamin and episesamin (sesamin:episesamin=51.1:48.2) but also sesamin and episesamin that were individually purified from the mixture. The wheat germ oil was a product of RIKEN VITAMIN CO., LTD.; the olive oil was a product of nakalai tesque; used as middle-chain fatty acids (MCTs) were ACTOR M-1 (a triglyceride of middle-chain fatty acid with C8:C10:C12=56:42:2) and ACTOR M-2 (a triglyceride of C8 middle-chain fatty acid), both being products of RIKEN VITAMIN CO., LTD. The diacylglycerol was a commercial fat or oil (Econa Cooking Oil of KAO CORPORATION, an edible oil containing about 80% diacylglycerol).
Into test tubes, there were weighed 2 g of the respective fats or oils and various concentrations of the samples that increased from 0.5 to 10% (by weight) by an increment of 0.25%. Then, the test tubes were heated to 120° C. so that sesamin completely dissolved in the fats or oils. Thereafter, the test tubes were allowed to stand overnight at room temperature to examine whether crystals would be formed or not.

Row | Structure (SMILES) | gene expression and enzymatic activity of β-oxidation enzymes in the liver [1] | bodily absorption, solution in fat or oil vs suspension in water [2] | factor of solubility improvement over wheat germ oil [3]
1 | c1cc2c(cc1[C@H]1OC[C@H]3[C@@H]1CO[C@@H]3c1ccc3c(c1)OCO3)OCO2 [Episesamin, episesamin] | markedly increasing | significantly superior in bodily absorption | 2.5-5.5
2 | c1cc2c(cc1[C@H]1OC[C@H]3[C@@H]1CO[C@@H]3c1ccc3c(c1)OCO3)OCO2 [Sesamin, sesamin] | – | significantly superior in bodily absorption | 2.5-5.5
